What was measured:
[1] = target: bovine serum albumin (BSA) (Bos taurus, UniProt P02769); assay: Inhibition of the formation of AGEs in a BSA/reducing sugar solution, measured by fluorescence; type: biochemical; settings: fluorescence versus positive control 1.5 mM aminoguanidine
Description: The preparation of a solution containing a protein and a reducing sugar was carried out extemporaneously as follows: a solution of bovine serum albumin (BSA) at a concentration between 1.5 μM and 1.5M, preferably between 15 μM and 500 μM, was incubated with a solution of a reducing sugar such as glucose, fructose, ribose, etc., preferably with glucose, at a concentration between 0.1M and 10M, preferably between 0.5M and 5M. […]
The protein/reducing sugar solution prepared in 1 was incubated with or without (negative control) the presence of an extract obtained in 2, at a temperature between 40 and 60° C., preferably at around 50° C. for 1 to 5 weeks, preferably for 3 weeks. The active substances obtained by extraction according to the protocol described in paragraph 2—extracts were tested at a concentration between 0.001 and 10%, preferably between 0.01 and 5% and more particularly at 1% by weight in the protein/reducing sugar preparation. The positive control used was aminoguanidine at a concentration between 15 μM and 150 mM, preferably at a concentration between 1.5 mM and 15 mM in water. The measure of the inhibition of the AGEs was carried out by measuring the fluorescence (excitation wavelength between 350 and 375 nm, preferably at 355 nm; emission wavelength between 420 and 450 nm, preferably at 430 nm). The inhibition was calculated by deducing the resulting value of the interaction of the plant extracts with the molecules of the reaction medium (quenching).
The preparation of a protein/reducing sugar solution was carried out according to the method described in Example 1 (paragraph 1). The molecules were tested at a concentration between 1×10^−7 and 1×10^−1%, and preferably between 1×10^−5 and 1×10^−1%, and in particular at 1×10^−1%, for example in water or in DMSO.

[2] = kidneys; cited from earlier work
[3] = Example 4, comparison with anthocyanins of the prior art, quenching taken into account
[4] = characterized molecules, in particular at 1×10^−1% in water or DMSO, BSA/reducing sugar

Chain of bovine serum albumin (BSA) (P02769 25-607): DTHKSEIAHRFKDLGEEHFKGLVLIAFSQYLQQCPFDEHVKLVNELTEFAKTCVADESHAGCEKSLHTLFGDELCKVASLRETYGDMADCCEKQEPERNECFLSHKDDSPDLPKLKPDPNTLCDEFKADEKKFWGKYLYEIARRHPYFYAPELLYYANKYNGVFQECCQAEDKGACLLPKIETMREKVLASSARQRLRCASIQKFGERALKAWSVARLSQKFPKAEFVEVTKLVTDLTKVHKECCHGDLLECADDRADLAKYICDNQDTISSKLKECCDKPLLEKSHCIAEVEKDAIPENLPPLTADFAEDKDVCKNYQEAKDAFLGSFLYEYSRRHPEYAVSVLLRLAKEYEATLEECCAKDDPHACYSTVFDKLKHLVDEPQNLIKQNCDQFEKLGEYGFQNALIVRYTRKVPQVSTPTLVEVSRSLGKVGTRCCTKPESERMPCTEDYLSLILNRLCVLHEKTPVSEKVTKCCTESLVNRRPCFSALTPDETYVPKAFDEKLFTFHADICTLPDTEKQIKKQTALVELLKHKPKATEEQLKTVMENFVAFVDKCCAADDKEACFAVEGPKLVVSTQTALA

Row | Compound | % inhibition [1, 3] [%] | % inhibition [1, 4] [%] | other results
1 | Oc1ccccc1O [Catechol] |  | 88.3 | 
2 | O=C1C[C@@H](c2ccc(O)cc2)Oc2cc(O[C@@H]3O[C@H](CO)[C@@H](O)[C@H](O)[C@H]3O)cc(O)c21 [Prunin] |  | 67.9 | 
3 | O=C([O-])c1ccccc1-c1c2cc(I)c(=O)c(I)c-2oc2c(I)c([O-])c(I)cc12.[Na+].[Na+] [Sodium erythrosine] |  | 95.6 | 
4 | OC[C@H]1O[C@@H](Oc2cc3c(O)cc(O)cc3[o+]c2-c2ccc(O)c(O)c2)[C@H](O)[C@@H](O)[C@H]1O.[Cl-] [Idaein chloride, reference compound] | 0 |  | 
5 | N=C(N)NN [Aminoguanidine] |  |  | reduction of the excretion of albumin in diabetics [2]: 90%
6 | OC[C@H]1O[C@@H](Oc2cc3c(O)cc(O)cc3[o+]c2-c2ccc(O)c(O)c2)[C@H](O)[C@@H](O)[C@@H]1O.[Cl-] [Kuromanin Chloride, reference compound] | 0 |  | 
7 | Nc1ccc(O)cc1 [4-Aminophenol] |  | 78.5 | 

Now from value to compound, other results behind:

Row | % inhibition [1, 3] [%] | % inhibition [1, 4] [%] | Compound | other results
8 | 0 |  | COc1cc(-c2[o+]c3cc(O)cc(O[C@@H]4O[C@H](CO)[C@@H](O)[C@H](O)[C@H]4O)c3cc2O[C@@H]2O[C@H](CO)[C@@H](O)[C@H](O)[C@H]2O)cc(OC)c1O.[Cl-] [Malvin Chloride, reference compound] | 
9 |  | 66.0 | Nc1c(CO)ccc2c1C(=O)c1ccccc1C2=O [1-Amino-2-hydroxymethylanthraquinone] | 
10 |  | 81.4 | O=C(/C=C/c1ccc(O)cc1)c1ccccc1 [4-Hydroxychalcone] | 
11 | 0 |  | OC[C@H]1O[C@@H](Oc2cc3c(O[C@@H]4O[C@H](CO)[C@@H](O)[C@H](O)[C@H]4O)cc(O)cc3[o+]c2-c2ccc(O)cc2)[C@H](O)[C@@H](O)[C@@H]1O.[Cl-] [Perlargonin chloride, reference compound] | 
12 |  | 89.6 | O=C1C=CC(=O)c2cc3ccccc3cc21 [1,4-Anthraquinone] | 
